From ChEMBL document CHEMBL1137529, “Syntheses and optimization of new GS39783 analogues as positive allosteric modulators of GABA B receptors” (Bioorg Med Chem Lett, 2007) come the findings set out here.

Series [1] addresses GABA-B receptor (Homo sapiens, UniProt O75899+Q9UBS5). The series is described as follows: Activity at GABAB 1b/2 receptor expressed in CHO-K1 cells assessed as effect on GABA-induced [35S]GTP-gamma-S binding. For orientation: GTPγS is a poorly hydrolysed GTP analogue; its binding reports G protein activation.
The nature of series [2]: Solubility in water. Type of series: physicochemical.
The nature of series [3]: Partition coefficient, log P of the compound. Type of series: physicochemical. As to conditions: octanol/water.

Chain of GABA-B receptor (Q9UBS5 whole entry): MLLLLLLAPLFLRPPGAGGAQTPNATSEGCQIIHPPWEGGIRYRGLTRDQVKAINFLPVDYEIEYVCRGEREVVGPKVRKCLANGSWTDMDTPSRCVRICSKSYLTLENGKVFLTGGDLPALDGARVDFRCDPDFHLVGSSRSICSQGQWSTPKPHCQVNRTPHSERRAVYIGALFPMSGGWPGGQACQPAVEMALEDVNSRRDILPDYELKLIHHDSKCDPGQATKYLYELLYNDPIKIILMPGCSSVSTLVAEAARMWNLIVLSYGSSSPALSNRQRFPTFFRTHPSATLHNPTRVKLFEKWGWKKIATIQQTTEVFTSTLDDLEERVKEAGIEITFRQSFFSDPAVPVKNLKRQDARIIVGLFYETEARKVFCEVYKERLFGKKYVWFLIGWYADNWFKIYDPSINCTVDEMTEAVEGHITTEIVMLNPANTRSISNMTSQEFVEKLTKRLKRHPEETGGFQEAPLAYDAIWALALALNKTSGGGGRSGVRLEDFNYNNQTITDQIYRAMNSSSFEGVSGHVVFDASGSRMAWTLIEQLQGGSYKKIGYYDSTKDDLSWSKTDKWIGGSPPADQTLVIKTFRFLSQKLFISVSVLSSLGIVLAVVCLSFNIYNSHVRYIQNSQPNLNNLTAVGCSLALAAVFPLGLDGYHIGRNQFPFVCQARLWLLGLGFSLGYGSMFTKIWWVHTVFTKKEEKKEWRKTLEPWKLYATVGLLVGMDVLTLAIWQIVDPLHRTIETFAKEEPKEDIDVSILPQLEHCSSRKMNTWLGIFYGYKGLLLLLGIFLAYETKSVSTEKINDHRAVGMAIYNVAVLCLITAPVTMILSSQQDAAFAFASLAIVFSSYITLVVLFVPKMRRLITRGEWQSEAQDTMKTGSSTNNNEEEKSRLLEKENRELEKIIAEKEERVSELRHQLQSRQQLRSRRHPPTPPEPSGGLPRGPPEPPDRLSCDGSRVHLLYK
Chain of GABA-B receptor (O75899 whole entry): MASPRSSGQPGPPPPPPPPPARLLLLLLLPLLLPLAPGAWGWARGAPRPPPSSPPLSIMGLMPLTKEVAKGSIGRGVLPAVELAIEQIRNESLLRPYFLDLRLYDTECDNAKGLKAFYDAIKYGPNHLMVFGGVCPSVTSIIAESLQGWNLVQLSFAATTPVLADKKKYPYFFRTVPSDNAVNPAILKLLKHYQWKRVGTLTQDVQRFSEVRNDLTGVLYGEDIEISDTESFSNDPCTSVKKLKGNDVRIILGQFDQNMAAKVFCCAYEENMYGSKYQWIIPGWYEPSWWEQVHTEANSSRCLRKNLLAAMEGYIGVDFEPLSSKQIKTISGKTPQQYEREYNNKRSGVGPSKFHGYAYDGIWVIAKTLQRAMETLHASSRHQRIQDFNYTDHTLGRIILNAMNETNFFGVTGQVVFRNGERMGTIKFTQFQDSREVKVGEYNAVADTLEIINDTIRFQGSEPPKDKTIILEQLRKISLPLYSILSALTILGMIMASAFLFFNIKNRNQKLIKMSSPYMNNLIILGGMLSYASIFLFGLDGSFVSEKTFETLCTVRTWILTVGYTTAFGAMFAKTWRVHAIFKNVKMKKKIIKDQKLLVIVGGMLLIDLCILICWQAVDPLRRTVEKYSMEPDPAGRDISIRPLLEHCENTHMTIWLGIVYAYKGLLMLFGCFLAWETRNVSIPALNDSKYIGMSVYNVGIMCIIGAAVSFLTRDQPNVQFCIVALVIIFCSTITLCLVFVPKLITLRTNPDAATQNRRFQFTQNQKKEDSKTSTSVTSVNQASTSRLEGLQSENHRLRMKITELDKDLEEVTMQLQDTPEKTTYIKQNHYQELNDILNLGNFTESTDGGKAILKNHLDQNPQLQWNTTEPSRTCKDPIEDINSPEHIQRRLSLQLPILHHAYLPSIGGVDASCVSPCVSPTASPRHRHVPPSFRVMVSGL

With `Cc1ncc(-c2ccc(OC(F)(F)F)cc2)c(NC2CCCC2)n1`, the concentration for a half-maximal effect (EC50) (in general, the concentration that produces a half-maximal response) in series [1] was 4570 nM.

As for `Cc1ncc(-c2ccc(C(F)(F)F)cc2)c(NC2C3CC4CC(C3)CC2C4)n1` (configuration not stated), in series [2], the solubility (commonly the concentration that dissolves in the medium under given conditions) is below 10 µg/mL. Also, the logP (usually the decadic logarithm of the partition coefficient of the neutral form, usually between octanol and water) in series [3] was above 5.9.

As to `COc1ncc(-c2ccc(C(F)(F)F)cc2)c(N[C@@H]2C[C@@H]3CC[C@H]2C3)n1`, the EC50 in series [1] is 2040 nM.

Consider `Cc1ncc(-c2ccc(C(F)(F)F)cc2)c(NC2CCCCCC2)n1`, for which, in series [1], the EC50 is 1660 nM.

`Cc1ncc(-c2ccc(C(F)(F)F)cc2)c(NC23CC4CC(CC(C4)C2)C3)n1` gave a solubility in series [2] below 10 µg/mL. Besides, the logP in series [3] is above 5.9.
